Assay results from patent US4866066A, “Thiomethylpyridine derivatives and their use for eliciting a bronchosecretolytic or mucolytic response” (Ludwig Heumann & Co. GmbH, priority 1982, dated 1989).
Where a name gives a salt, the structure may show the parent alone. Read-outs that look alike come from different tables or passages of the source.

Legend:
[1] = test system: tracheal secretion of phenol red; test: Secretostimulating activity: tracheal secretion of phenol red after oral administration to non-anaesthetized mice; format: in vivo; settings: for ED50: Table I, non-anaesthetized mice, promotion of tracheal phenol red secretion, calculated from regression curves
Method: The increase in the tracheal secretion of phenol red is a measure of bronchosecretolytic activity. The relevant activity of the test substances was studied after oral administration to non-anaesthetized mice. The ED50 -values indicated in Table I were calculated using the regression curves.

mice = settings: p.o., under identical conditions; cited from earlier work
bronchial mucus = test: Mucosecretolytic activity in dogs: viscosity of bronchial mucus after i.v. administration; format: in vivo, mongrel dogs; settings: for Viscosity, 1 hour after administration: 1 hour after 10 mg/kg i.v.; for Viscosity, 1 hour after administration / Viscosity, initial value: mucus 1% w/v in 0.1M tris-buffer pH 7; for reduction in the viscosity of the bronchial mucus (in words): i.v., dogs, identical quantity by weight; for Viscosity, initial value: immediately before administration, 10 mg/kg i.v., baseline
Method: Bronchial mucus was removed by means of a bronchoscope from anaesthetized mongrel dogs immediately before and 1 hour after intravenous administration of the test substances and taken up in phosphate buffer. After dialyzation and freeze-drying, the mucus samples were taken up in 0.1M tris-buffer (pH 7) (final concentration 1% w/v). Viscosity was measured by means of a rotary viscosimeter (as manufactured by Contraves, Stuttgart).

[2] = Acute oral toxicity in mice; settings: mouse, in vivo, p.o.
Source text: The compounds according to the invention show low oral toxicity in acute tests.

Molecule: c1ccc(CSc2nc3ccccc3o2)nc1 [Example 9, 2-(methylthio-2-pyridyl)-benzoxazole oxalate]
- ED50 ([1]; Mus musculus, read-out: ED50): 45 mg/kg

Molecule: c1ccc(SCc2cccnc2)nc1 [Example 5, 2-(pyridyl-3-methylthio)-pyridine dihydrochloride]
- ED50 ([1]; Mus musculus, read-out: ED50): 2.1 mg/kg

Molecule: Nc1c(Br)cc(Br)cc1CN[C@H]1CC[C@H](O)CC1 [Ambroxol, trans-4-(2-amino-3,5-dibromobenzyl)-aminocyclohexanol, reference compound]
- toxicity compared with 2-(pyridyl-3-methylthio)-pyrimidine hydrochloride (in words) (mice): slidingly less toxic
- ED50 ([1]; Mus musculus, read-out: ED50): 250 mg/kg
- Viscosity, 1 hour after administration (bronchial mucus): 2.3 mPa × s
- reduction in the viscosity of the bronchial mucus (in words) (bronchial mucus): distinct reduction in the viscosity of the bronchial mucus
- Viscosity, initial value (bronchial mucus): 3.8 mPa × s

Molecule: Cc1ccnc(SCc2cccnc2)n1 [Example 3, 2-(pyridyl-3-methylthio)-4-methyl-pyrimidine hydrochloride]
- ED50 ([1]; Mus musculus, read-out: ED50): 10 mg/kg

Molecule: 2-(methylthio-3-pyridyl)-oxazolo(4,5-c) pyridine dihydrochloride [Example 10]
- ED50 [1]: 12 mg/kg

Molecule: c1ccc(CSc2ncccn2)nc1 [Example 2, 2-(pyridyl-2-methylthio)-pyrimidine hydrochloride]
- ED50 ([1]; Mus musculus, read-out: ED50): 400 mg/kg

Molecule: Cc1cc(C)nc(SCc2cccnc2)n1 [Example 4, 2-(pyridyl-3-methylthio)-4,6-dimethyl-pyrimidine hydrochloride]
- ED50 ([1]; Mus musculus, read-out: ED50): 12 mg/kg

Molecule: c1ccc(CSc2ccccn2)nc1 [Example 6, 2-(pyridyl-2-methylthio)-pyridine dihydrochloride]
- ED50 ([1]; Mus musculus, read-out: ED50): 6.3 mg/kg

Molecule: Cc1ccc2nc(SCc3cccnc3)oc2c1 [Example 8, hydrochloride]
- ED50 ([1]; Mus musculus, read-out: ED50): 15 mg/kg

Molecule: c1cnc(SCc2cccnc2)nc1 [Example 1, 2-(pyridyl-3-methylthio)-pyrimidine hydrochloride]
- ED50 ([1]; Mus musculus, read-out: ED50): 1.5 mg/kg
- activity in promoting tracheal secretion of phenol red (in words) ([1]; mice, among compounds of Table I): strongest activity
- effect in promoting the secretion of phenol red relative to Ambroxol ([1]; mice, times stronger than Ambroxol): approximately 160 times
- Viscosity, 1 hour after administration (bronchial mucus): 1.2 mPa × s
- reduction in the viscosity of the bronchial mucus (in words) (bronchial mucus): even more distinct reduction in the viscosity of the bronchial mucus
- Viscosity, initial value (bronchial mucus): 3.9 mPa × s
- LD50 [2]: 1160 mg/kg

Molecule: c1cncc(CSc2nc3ccccc3o2)c1 [Example 7]
- ED50 ([1]; Mus musculus, read-out: ED50): 15 mg/kg
